Source: US10905702B2 (priority 2016, dated 2021)
Read-outs that look alike come from different tables or passages of the source.

Legend:
[1] = molecular target: T1, recombinant human Gal3 (Homo sapiens, UniProt P17931); test: Inhibition of hGal3 binding to asialofetuin (microtiter plate); details: biotinylated rhGal3 5 ug/ml pre-mixed with inhibitor; TDG 5 mM; Lac 50 mM; FIG. 12
T1 construct: made in house; host or cells: Escherichia coli BL21 (DE3)
Protocol: Ninety-six well microtiter plates were coated with 1 ug/well of asialofetuin (10 μg/ml in PBS, 100 ul each well) for 3 h at 37° C., washed and blocked with 3% BSA in PBS overnight at 4° C. […] The reaction was stopped with 1 M HCl and the optical density (OD) at 450 nm from each well was measured by SpectraMax 340 plate reader (Molecular Device).

[2] = molecular target: T2, rhGal3 binding onto A549 cells (Homo sapiens, UniProt P17931); test: Flow cytometry of rhGal3 binding to A549 cells and its inhibition; format: cell-based
T2 construct: made in house; host or cells: Escherichia coli BL21 (DE3)
T2 sequence (P17931 whole entry): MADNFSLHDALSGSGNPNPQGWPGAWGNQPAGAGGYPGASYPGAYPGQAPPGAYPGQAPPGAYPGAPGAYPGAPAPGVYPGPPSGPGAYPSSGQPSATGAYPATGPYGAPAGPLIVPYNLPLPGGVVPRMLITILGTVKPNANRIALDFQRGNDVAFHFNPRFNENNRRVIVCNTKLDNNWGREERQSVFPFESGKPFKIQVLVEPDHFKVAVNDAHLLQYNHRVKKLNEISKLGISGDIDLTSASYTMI

[3] = tested on: SOCS1, SOCS3, SOCS4 expression in A549 cells; test: SOCS expression in A549 cells incubated with rhGal3 with or without TDG (quantitative realtime PCR); format: cell-based, human
Protocol: A549 cells were grown in 12-well plates and incubated with 0˜30 μg/ml of rhGal3 for 1 hour. After washing, RNA was extracted from the cells and subjected to reverse-transcription, followed by quantitative realtime PCR with designed primers for SOCS1, SOCS3, SOCS4, and beta-actin. Ct values were calculated and the relative expression level was calculated as 2^(Ct actin−Ct target).

[4] = tested on: SOCS1; format: cell-based, human; details: 15 μg/ml, 1 h
[5] = tested on: RIG1; format: cell-based, human
[6] = tested on: ERK, AKT, p38 MAPK, STAT1 and NF-κB phosphorylation in A549 cells; format: cell-based, human
[7] = tested on: A549 cells; format: cell-based, human; details: for extracellular cytokine levels: A549 cells, treatment alone vs untreated cells, FIG. 7
[8] = hGal3 10 μg/ml pre-mixed with 0~10 mM disaccharide
[9] = A549 cells, treatment alone, vs control
[10] = NeuK-treated A549 cells, 15 μg/ml
[11] = A549 cells pre-exposed to NeuK, 15 μg/ml

T1 sequence (P17931 whole entry): as above

Compound: OC[C@H]1O[C@@H](S[C@@H]2O[C@H](CO)[C@H](O)[C@H](O)[C@H]2O)[C@H](O)[C@@H](O)[C@H]1O [TDG, thiodigalactoside]
- inhibition of rhGal3 binding to asialofetuin (OD 450 nm) [1]: partially inhibit
- inhibition of hGal3 binding onto A549 cells (MFI) [2, 8]: inhibit the binding
- inhibition of hGal3 binding onto A549 cells (MFI) ([2]; hGal3 pre-mixed with Lac 50 mM, TDG 50 mM or 10 mM): inhibit binding well
- SOCS expression (SOCS1, SOCS3, SOCS4) ([3]; 30 μg rhGal3 pre-mixed with TDG 50 mM, one hour, FIG. 17): offset all the galectin's effect in suppressing SOCS expression
- SOCS expression ([3]; disaccharide (TDG 50 mM) alone, one hour): some positive effect in SOCS expression

Compound: rhGal3: recombinant human galectin-3
- SOCS expression (SOCS1, SOCS3, SOCS4) ([3]; 0~30 μg/ml rhGal3, 1 hour, FIG. 16): suppress SOCS expression in dose-dependent manner
- SOCS1 expression, downregulated ([4]; untreated or NeuK-treated A549 cells): 60-70 % of the control levels
- RIG1 expression, downregulated to ([5]; NeuK treatment followed by exposure, 15 μg/ml): about 20 % of the unexposed controls
- RIG1 expression, increase ([5]; treatment alone, A549 cells): about 4 fold
- phosphorylation level of AKT [6, 9]: up to 4 fold
- phosphorylation level of ERK [6, 9]: increased
- phosphorylation level of STAT1 [6, 9]: increased
- phosphorylation level of p38 [6, 9]: remained unchanged
- phosphorylation of p38, decrease ([6]; NeuK-treated A549 cells compared with effect on untreated cells): more than 50%
- phosphorylation level of AKT [6, 10]: 1.5 fold
- phosphorylation level of ERK [6, 10]: 3 fold
- IL-1β, IL-10 and IL-12 levels in culture supernatant [7, 11]: had no effect
- IL-6 level in culture supernatant, increase [7, 11]: 8 fold
- IL-8 level in culture supernatant, increase [7, 11]: 15 fold
- IL-15 level in culture supernatant, increase [7, 11]: 20 fold
- extracellular cytokine levels [7]: increased levels of IFNγ, TNFα, IL-10, IL-6, and IL-8

Compound: CC(=O)N[C@H]1C(O)O[C@H](CO)[C@H](O)[C@@H]1O[C@@H]1O[C@H](CO)[C@H](O)[C@H](O)[C@H]1O (stereo partly shown) [TF disaccharides, Galβ1,3GalNAc]
- inhibition of hGal3 binding onto A549 cells (MFI) [2, 8]: inhibit the binding

Compound: rhGal1: recombinant human galectin-1
- SOCS1 expression ([4]; A549 cells pre-treated with NeuK): returned to the control levels
- SOCS1 expression, decrease ([4]; untreated A549 cells): 20-30%
- RIG1 expression, increase ([5]; NeuK-pretreated A549 cells, 15 μg/ml): about 12 fold
- RIG1 expression, decreased to ([5]; exposure alone, A549 cells, 15 μg/ml): about 50 % of the unexposed control
- phosphorylation level of ERK [6, 10]: increased
- phosphorylation level of STAT1 [6, 10]: increased
- phosphorylation level of p38 [6, 10]: remained at the level of the NeuK-treated A549 control
- phosphorylation level of AKT, decreased to ([6]; untreated A549 cells, 15 μg/ml): 50 % of the control level
- IL-6 level in culture supernatant, increase [7, 11]: 4 fold
- IL-8 level in culture supernatant, increase [7, 11]: 5 fold
- IL-15 level in culture supernatant, increase [7, 11]: 25 fold
- extracellular cytokine levels [7]: the levels of IFNγ, IL-6, IL-8, and IL-10 increased
